Experiment [1] deals with trachea isolated from guinea pig. The experiment in a line: Test 3: Direct relaxation of the trachea isolated from guinea pig. Format: cell-based. The following applies: Cavia porcellus, 50% of the maximum relaxation (relaxation induced by isoproterenol at 1x10⁻⁶ M), cumulative addition, read-out: EC₅₀. As to the method: Test 3 -Direct relaxation of the trachea isolated from guinea pig.
This test was performed according to the experimental model described by Emmerson, J. and Mackay, D. (J. Pharm. Pharmacol.,1979,31, 798). Tracheas were extracted from male guinea pigs of 400 g of body weight, which had been stunned by a blow in the head. Then, tracheas were cut in zigzag and placed into an isolated organ bath (Letica) containing Krebs-Henseleit solution at 37°C and were bubbled with carbogen (95% O₂ and 5% CO₂). The relaxation of the trachea was measured using an isometric force transducer. The basal tension was 0.5 g. The tested compounds were accumulatively added to the bath and the effective concentration which produces a 50% of the maximum relaxation (EC₅₀) was calculated.

Experiment [2] has as its system portal vein isolated from rat. The experiment in a line: Test 1: Inhibition of the contraction induced by noradrenaline in portal vein isolated from rat. Format: cell-based. The following applies: contraction induced by noradrenaline (3µM), compounds incubated for 30 minutes, 50% inhibition versus the basal response, read-out: IC₅₀. Here is the method: Test 1: Inhibition of the contraction induced by noradrenaline in portal vein isolated from rat.
Portal vein was extracted from adult male rats (between 200 and 250 g of body weight), which had been stunned by a blow in the head. Portal vein was installed into an isolated organ bath (Letica) containing a physiological saline solution (Hamilton et al., Br. J. Pharmacol., 1986, 88, 103-111) at 37 °C and a gas bubbler (5% CO₂ and 95% O₂). Contractions were induced by noradrenaline (3µM) and were reverted after thoroughly washing with physiological saline solution. Portal vein contraction was measured with an isometric force transducer and with an initial tension of 1 g. After two contractions with noradrenaline, performed in order to measure the tissue's basal response, the tested compounds were incubated for 30 minutes and a new contraction was induced. The concentration that produces a 50% inhibition (IC₅₀) versus the basal response was calculated.

The test system of experiment [3] is Spontaneously hypertense rats. The experiment in a line: Test 2: Lowering of the arterial pressure in conscious hypertense rats. The experiment is classed as in vivo, rat. The following applies: dose which produces a decrease of 30 mm Hg of the systolic arterial pressure, 3 doses and 3 animals per dose; for ED (30 mmHg decrease): Rattus norvegicus, po, read-out: ED₃₀; for ED₃₀: p.o. Here is the method: Test 2: Lowering of the arterial pressure in conscious hypertense rats.
Spontaneously hypertense rats (between 200 and 250 g of body weight) of more than 8 weeks of age have been used. Diastolic and systolic arterial pressure of the rat was measured at the caudal artery using a special sphygnomanometer (Letica 5007 and 5007/4) attached to the animal's tail. To ensure rapid and reliable data, animals were placed in a heating plate at 37°C, with the aim to produce a vasodilatation that ensured a better fixation of the rat tail to the transducer chamber. During the experiment, rats are conscious and fixed to a clamp. The tested products were administered orally. Arterial pressure was measured every 30 minutes and 10 minutes before the administration of the tested compound. The ED₃₀ (dose which produces a decrease of 30 mm Hg of the systolic arterial pressure) was calculated for each compound, using 3 doses and 3 animals per dose.

Structures are written as SMILES. Read-outs that look alike come from different tables or passages of the source.

In the case of `CC1(C)Oc2ccc(C#N)cc2[C@@H](NC(=O)[C@@H]2CCCN2C(=O)Oc2ccccc2)[C@@H]1O` (mixture of isomers) [Compound 34, Trans 3,4-dihydro-2,2-dimethyl-3-hydroxy-4-[(2S)-1-phenoxycarbonyl-2-pyrrolidinylcarbonylamino]-2H-1-benzopyran-6-carbonitrile], the EC50 in experiment [1] was determined as 2500 nM. Moreover, the IC50 in experiment [2] (Rattus norvegicus, 0.5 h) was 2500 nM. Further, the ED (30 mmHg decrease) in experiment [3] came to 3 mg/kg.

On to `CC1(C)Oc2ccc(C#N)cc2[C@@H](NC(=O)[C@@H]2CCCN2C(=O)OCc2ccccc2)[C@@H]1O` (mixture of isomers) [Compound 35, Trans 3,4-dihydro-2,2-dimethyl-3-hydroxy-4-[(2S)-1-benzyloxycarbonyl-2-pyrrolidinylcarbonylamino]-2H-1-benzopyran-6-carbonitrile], for which, in experiment [1], the EC50 was determined as 900 nM. Moreover, the ED (30 mmHg decrease) in experiment [3] worked out at 0.05 mg/kg.

On to `COc1cccc(COC(=O)N2CCC[C@H]2C(=O)N[C@@H]2c3cc(C#N)ccc3OC(C)(C)[C@H]2O)c1` (mixture of isomers) [Compound 58, Trans 3,4-dihydro-2,2-dimethyl-3-hydroxy-4-[(2S)-1-[(3-methoxyphenyl)methyloxycarbonyl]-2-pyrrolidinylcarbonylamino)-2H-1-benzopyran-6-carbonitrile], for which the IC50 in experiment [2] (Rattus norvegicus, 0.5 h) worked out at 500 nM. In experiment [3], the ED (30 mmHg decrease) is less than 1 mg/kg.

Consider `CC1(C)Oc2ccc(C#N)cc2[C@@H](NC(=O)[C@@H]2CCCN2C(=O)OCc2cccc(Cl)c2)[C@@H]1O` (mixture of isomers) [Compound 60, Trans 3,4-dihydro-2,2-dimethyl-3-hydroxy-4-[(2S)-1-[(3-chlorophenyl)methyloxycarbonyl]-2-pyrrolidinylcarbonylamino)-2H-1-benzopyran-6-carbonitrile], for which the EC50 in experiment [1] was 100 nM. Also, the IC50 in experiment [2] (Rattus norvegicus, 0.5 h) was 200 nM. Besides, the ED (30 mmHg decrease) in experiment [3] is less than 0.5 mg/kg.

As to `CC1(C)Oc2ccc(C#N)cc2[C@@H](NC(=S)N2CCCC2)[C@@H]1O` (relative stereo) [Compound 1, Trans 3,4-dihydro-2,2-dimethyl-3-hydroxy-4-(1-pyrrolidinylthiocarbonylamino)-2H-1-benzopyran-6-carbonitrile], the IC50 in experiment [2] (Rattus norvegicus, 0.5 h) is 3100 nM. The ED (30 mmHg decrease) in experiment [3] was greater than 3 mg/kg.

Take `CC1(C)Oc2ccc(C#N)cc2[C@@H](NC(=S)N2CCCCC2)[C@@H]1O` (relative stereo) [Compound 3, Trans 3,4-dihydro-2,2-dimethyl-3-hydroxy-4-(1-piperidinylthiocarbonylamino)-2H-1-benzopyran-6-carbonitrile]: in experiment [1], the EC50 turned out to be 800 nM. Also, in experiment [2] (Rattus norvegicus, 0.5 h), the IC50 is 4200 nM. Further, the ED (30 mmHg decrease) in experiment [3] was found to be 0.5 mg/kg.

As to `CN1CCN(C(=S)N[C@@H]2c3cc(C#N)ccc3OC(C)(C)[C@H]2O)CC1` (relative stereo) [Compound 7, Trans 3,4-dihydro-2,2-dimethyl-3-hydroxy-4-(4-methyl-1-piperazinylthiocarbonylamino)-2H-1-benzopyran-6-carbonitrile], in experiment [1], the EC50 amounted to 1300 nM. Further, in experiment [2] (Rattus norvegicus, 0.5 h), the IC50 was found to be 5300 nM. In addition, in experiment [3], the ED (30 mmHg decrease) turned out to be 0.17 mg/kg.

Consider `CC(C)(C)OC(=O)N1CCCCC1C(=O)N[C@@H]1c2cc(C#N)ccc2OC(C)(C)[C@H]1O` (relative stereo) [Compound 13, Trans 3,4-dihydro-2,2-dimethyl-3-hydroxy-4-(1-tert-butoxycarbonyl-2-piperidinylcarbonylamino)-2H-1-benzopyran-6-carbonitrile], for which the EC50 in experiment [1] stood at 6000 nM. In addition, the IC50 in experiment [2] (Rattus norvegicus, 0.5 h) was 31000 nM. In addition, in experiment [3], the ED (30 mmHg decrease) came out at 0.18 mg/kg.

As for `CC1(C)Oc2ccc(C#N)cc2[C@@H](NC(=O)C2CCCCN2C(=O)Oc2ccccc2)[C@@H]1O` (relative stereo) [Compound 18, Trans 3,4-dihydro-2,2-dimethyl-3-hydroxy-4-(1-phenyloxycarbonyl-2-piperidinylcarbonylamino)-2H-1-benzopyran-6-carbonitrile], in experiment [1], the EC50 was 1000 nM. In addition, the IC50 in experiment [2] (Rattus norvegicus, 0.5 h) was found to be 800 nM. Further, in experiment [3], the ED (30 mmHg decrease) worked out at 0.7 mg/kg.

On to `CC1(C)Oc2ccc(C#N)cc2[C@@H](NC(=O)C2CCCCN2C(=O)OCc2ccccc2)[C@@H]1O` (relative stereo) [Compound 19, Trans 3,4-dihydro-2,2-dimethyl-3-hydroxy-4-(1-benzyloxycarbonyl-2-piperidinylcarbonylamino)-2H-1-benzopyran-6-carbonitrile], for which, in experiment [1], the EC50 worked out at 4500 nM. In addition, in experiment [2] (Rattus norvegicus, 0.5 h), the IC50 is 800 nM. For the same molecule, in experiment [3], the ED (30 mmHg decrease) was 0.7 mg/kg.

Consider `CC1(C)Oc2ccc(C#N)cc2[C@@H](NC(=O)C2CCCCC2)[C@@H]1O` (relative stereo) [Compound 45, Trans 4-cyclohexylcarbonylamino-3,4-dihydro-2,2-dimethyl-3-hydroxy-2H-1-benzopyran-6-carbonitrile], for which, in experiment [1], the EC50 was found to be 400 nM. Moreover, the IC50 in experiment [2] (Rattus norvegicus, 0.5 h) came to 3500 nM. Further, the ED (30 mmHg decrease) in experiment [3] was 0.65 mg/kg.

As to `CC(C)COC(=O)N1CCC[C@H]1C(=O)N[C@@H]1c2cc(C#N)ccc2OC(C)(C)[C@H]1O` (single isomer, unassigned) [33(A)], the IC50 in experiment [2] was greater than 10000 nM. Also, the ED₃₀ in experiment [3] came to 0.3 mg/kg.

Regarding `CC(C)COC(=O)N1CCC[C@H]1C(=O)N[C@@H]1c2cc(C#N)ccc2OC(C)(C)[C@H]1O` (single isomer, unassigned) [33(B)], the EC50 in experiment [1] worked out at 9100 nM. Moreover, in experiment [2], the IC50 stood at 300 nM. Also, in experiment [3], the ED₃₀ was less than 0.1 mg/kg.

As to `CC(C)(C)OC(=O)N1CCC[C@H]1C(=O)N[C@H]1c2cc(C#N)ccc2OC(C)(C)[C@@H]1O` [28(A), Trans (3R,4S)-3,4-dihydro-2,2-dimethyl-3-hydroxy-4-[(2S)-1-tert-butoxycarbonyl-2-pyrrolidinylcarbonylamino]-2H-1-benzopyran-6-carbonitrile], in experiment [2] (Rattus norvegicus, 0.5 h), the IC50 was greater than 10000 nM.

In the case of `CC(C)(C)OC(=O)N1CCC[C@H]1C(=O)N[C@@H]1c2cc(C#N)ccc2OC(C)(C)[C@H]1O` [28(B), Trans (3S,4R)-3,4-dihydro-2,2-dimethyl-3-hydroxy-4-[(2S)-1-tert-butoxycarbonyl-2-pyrrolidinylcarbonylamino]-2H-1-benzopyran-6-carbonitrile], the EC50 in experiment [1] amounted to 4800 nM. The IC50 in experiment [2] (Rattus norvegicus, 0.5 h) was 2600 nM. The ED₃₀ in experiment [3] is 1.0 mg/kg.

As for `CC1(C)Oc2ccc(C#N)cc2[C@H](NC(=O)[C@@H]2CCCN2C(=O)OCc2ccccc2)[C@H]1O` [35(A), Trans (3R,4S)-3,4-dihydro-2,2-dimethyl-3-hydroxy-4-[(2S)-1-benzyloxy-carbonyl-2-pyrrolidinylcarbonylamino]-2H-1-benzopyran-6-carbonitrile], the IC50 in experiment [2] (Rattus norvegicus, 0.5 h) stood at 2400 nM.

As to `CC1(C)Oc2ccc(C#N)cc2[C@@H](NC(=O)[C@@H]2CCCN2C(=O)OCc2ccccc2)[C@@H]1O` [35(B), Trans (3S,4R)-3,4-dihydro-2,2-dimethyl-3-hydroxy-4-[(2S)-1-benzyloxy-carbonyl-2-pyrrolidinylcarbonylamino]-2H-1-benzopyran-6-carbonitrile], in experiment [2] (Rattus norvegicus, 0.5 h), the IC50 was 200 nM.

(Values after EP0488301A1, “New benzopyran compounds with pharmacological activity” (J. URIACH & CIA. S.A., priority 1990, dated 1992).)
